Source: US20250281497A1, “FUSED AMINO PYRIMIDINE COMPOUNDS FOR TREATMENT OF SEIZURE DISORDERS” (Ovid Therapeutics Inc., priority 2024, published 2025)

Molecular target: T1, KCC2 (Homo sapiens, UniProt Q9H2X9)
T1 construct: expressed in transfected cells; host or cells: HEK-293 (ATCC CRL-1573)
T1 sequence (Q9H2X9 1-1116 isoform Q9H2X9-2): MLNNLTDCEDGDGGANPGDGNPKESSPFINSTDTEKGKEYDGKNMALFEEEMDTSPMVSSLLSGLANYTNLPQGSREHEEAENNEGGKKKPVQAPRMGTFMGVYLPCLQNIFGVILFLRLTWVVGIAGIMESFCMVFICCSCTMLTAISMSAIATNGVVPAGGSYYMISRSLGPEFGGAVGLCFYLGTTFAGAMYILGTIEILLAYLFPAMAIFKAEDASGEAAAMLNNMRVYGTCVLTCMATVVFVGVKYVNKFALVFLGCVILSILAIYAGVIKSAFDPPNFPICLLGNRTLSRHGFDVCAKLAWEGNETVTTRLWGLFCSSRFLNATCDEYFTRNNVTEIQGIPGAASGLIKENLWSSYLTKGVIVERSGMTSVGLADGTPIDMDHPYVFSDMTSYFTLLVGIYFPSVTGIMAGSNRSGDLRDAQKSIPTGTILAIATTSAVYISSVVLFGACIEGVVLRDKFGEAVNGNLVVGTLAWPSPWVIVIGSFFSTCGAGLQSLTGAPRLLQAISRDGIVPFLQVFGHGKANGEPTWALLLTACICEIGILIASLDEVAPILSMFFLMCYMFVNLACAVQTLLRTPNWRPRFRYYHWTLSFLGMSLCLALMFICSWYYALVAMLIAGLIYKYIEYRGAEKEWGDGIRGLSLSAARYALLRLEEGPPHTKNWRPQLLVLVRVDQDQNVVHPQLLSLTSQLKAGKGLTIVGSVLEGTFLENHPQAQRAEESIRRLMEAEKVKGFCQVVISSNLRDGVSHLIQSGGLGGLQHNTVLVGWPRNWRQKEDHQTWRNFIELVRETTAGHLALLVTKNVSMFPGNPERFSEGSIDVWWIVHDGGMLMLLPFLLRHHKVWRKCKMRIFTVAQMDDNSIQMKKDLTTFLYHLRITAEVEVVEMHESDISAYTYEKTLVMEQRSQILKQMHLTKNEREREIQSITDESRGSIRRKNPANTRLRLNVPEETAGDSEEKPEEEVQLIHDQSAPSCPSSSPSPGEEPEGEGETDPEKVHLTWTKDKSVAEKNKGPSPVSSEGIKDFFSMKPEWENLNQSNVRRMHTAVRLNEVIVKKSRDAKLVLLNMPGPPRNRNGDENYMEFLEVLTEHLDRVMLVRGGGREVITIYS
Assay: Cellular thermal shift assay (CETSA) in transfected HEK-293 cells
Assay type: binding
Details: 30 μM, 90 min, heated 37-58° C.
Protocol: Determining if compounds in SSA directly interact with KCC2. This was tested using a cellular thermal shift assay (CETSA), which measures the ability of a drug to modify the thermal stability of its target in whole cells (Kawatkar et al., ACS Chem. Biol. 14, 1913-1920 (2019); Martinez et al., Sci Rep 8, 9472 (2018)).
2×10^6 transfected HEK-293 cells were incubated with 30 μM drug or vehicle for 90 min at 37° C. and then heated from 37-58° C. for 5 min. Cells were rapidly chilled to 25° C. and NP40 was added to a final concentration […] to snap freezing in liquid nitrogen. Following 5 freeze/thaw cycles lysates were centrifuged at 12,000×g to remove denatured proteins and associated cell debris.
Aliquots of HEK-293 cells expressing KCC2 were exposed to 30 μM SSA, heated from 37-55° C. The remaining level of soluble native KCC2 at each temperature was measured by immunoblotting and normalized to the level seen at 37° C. which was given a value of 1. […] This panel included protein kinase C isoforms, OSR1, SPAK (STK39) and with-no-lysine kinases (WNK), all of which phosphorylate KCC2 on multiple residues to indirectly modify its activity (Kahle et al., 2013, supra; Smalley et al., 2020, supra).

Question: For `C[C@@H]1CN(c2nc3c(c(Nc4ccc(C5CCCCC5)cc4)n2)COC3)CCO1` [Compound A, (R)—N-(4-cyclohexylphenyl)-2-(2-methylmorpholino)-5,7-dihydrofuro[3,4-d]pyrimidin-4-amine], which “thermal stability of KCC2 / direct binding (CETSA)” value is on record?
Answer: Its value is “capable of directly binding to KCC2”.
